Key:
[1] = tested on: STZ-induced DKD rats; test: Masson staining, interstitial fibrosis index, STZ-induced DKD rats; format: in vivo, rat; conditions: 10 mg/kg once/day, P<0.05 vs vehicle
Protocol: (§1) Before the injection, the rats were fasted for 12 hours without water. After weighing, the rats were injected with 55 mg/kg STZ intraperitoneally (STZ needs to be injected quickly, and the injection was completed within 10 minutes), and then returned to the cage to ensure that the rats had sufficient drinking water for 24 hours. Rats were injected with an equal volume of citrate buffer (pH 4.5). After STZ injection for 3 weeks, blood was collected from the tail vein, and blood glucose ≥16.7 mmol/L was used as the criteria for the standard of the rats.
(§2) The route of administration is intragastric administration. TBN was administered twice a day (fixed at 9:00-10:00 am and 3:00-4:00 pm), and Losartan was administered once a day (fixed at 9:00-10:00 am) continuously for 6 weeks.
At the end of the experiment, the kidney tissues were quickly separated, fixed with 4% paraformaldehyde and embedded in paraffin, serially sliced, 5 μm each, dried at 37° C. for 1 h, and then subjected to Masson staining. The process is briefly as follows: paraffin sections are taken out of the 65° C. oven and immediately put in xylene for dewaxing and gradient alcohol rehydration, according to the kit instructions, add reagent A (a mixture of equal amounts of A1 and A2) for dyeing for 8 min; then use Reagent B differentiates and reagent C turns blue; reagent D stains for 7 min; reagent E washes for 1 min; reagent F washes for 1 min; reagent G stains for 1 min; dehydrated with 95% ethanol and absolute ethanol, transparent xylene, sealed with neutral gum piece.

[2] = tested on: db/db mice; test: Electron microscopy of kidney tissue in db/db mice; format: in vivo, mouse; conditions: 10 mg/kg, 6 weeks (TBN P<0.05; Losartan P<0.01)
Source text: (§3) db/db mice are congenital obese type 2 DKD mice with spontaneous mutations in the leptin receptor (Leptin receptor, Lepr) due to a point mutation in the leptin receptor gene GT located on chromosome 4. The course of polyphagia, polyuria, diabetes and hyperglycemia is similar to that of humans, and it is currently the most widely used type 2 spontaneous animal model of DKD. The db/db mice have a series of complications with the aggravation of diabetes. The main pathological changes of renal tissue are the expansion of the glomerular mesangial interstitium, the thickening of the glomerular basement membrane, and the excessive accumulation of extracellular matrix. However, the glomerular mesangium of db/db mice changes relatively slowly, and the glomerular mesangium will not be dissolved or nodular glomerulosclerosis, and there is no progressive renal insufficiency.
Six-week-old db/db mice were purchased, and start the administration after adaptive feeding for 1 week (i.e., 7-week-old). TBN is administered twice a day (fixed by starting from 9:00-10:00 am and 3:00-4:00 pm, with an interval of 6 hours), and the positive control drug Losartan was administered once a day (fixed at 9:00-10:00 am) for 6 weeks.
After the mice were executed, the renal cortex was quickly taken with sharp blade (performed on ice); fixed with 2.5% glutaraldehyde (pH 7.4) at 4° C. for 6 h; then fixed for 2 h in a stationary liquid having 1:1 of 0.2 mmol/L PBS and 2% osmic acid, and dehydrated with gradient acetone at 4° C., 10 min for each of 50%, 70%, 90% acetone, then dehydrated with 100% acetone at room temperature twice, each time 15 min; in 1:1 acetone and Epon812 epoxy resin embedded mixed liquid, soaked at room temperature for 30 min; then dipped through the pure furnishings overnight, the embedding agent was made enveloping into tissue blocks completely to replace the dehydrating agent; the samples were embedded in the embedder for ultra-thin slicing, placed at 35° C. for 12 h; placed at 45° C. for 12 h; placed at 60° C. for 48 h; placed in a 37° C. oven for 36 h, in a 60° C. oven for 36 h; 1.5 μm semi-slice was prepared with an ultra-thin slicer; positioning under optical microscope, a trapeter having a top area of about 1 mm^2 was shaped to prepare 60-70 nm thick ultra-thin slices; dyed in dark with acetate hydroxide liquid for 10 min, and dyed in lead-stained citrate for 10 min.

[3] = tested on: db/db mice; test: 24 h urine microalbumin in db/db mice; format: in vivo, mouse; conditions: 10 mg/kg once/day, 6 weeks, P<0.001
Source text: as §3, with “insufficiency. […]” for “insufficiency.”
db/db mice were tested for 24 h urine microalbumin in the 4th and 6th week after drug treatment. […] The absorbance value (OD value) was measured at 450 nm wavelength; the blank control hole was used for adjusting zero, the microalbuminuria standard concentration was used as the abscissa, the OD value as the ordinate, the standard curve regression equation was calculated, and on the basis of the regression equation and the sample's OD value, the concentration of the sample was determined.

[4] = tested on: STZ-induced DKD rats; test: HE staining of kidney tissue, STZ-induced SD rat DKD model; format: in vivo; conditions: 10 mg/kg i.g. once/day, 6 weeks
Protocol: as §1, §2
At the end of the experiment, kidney tissues were quickly separated, fixed with 4% paraformaldehyde and embedded in paraffin, serially sliced, 5 μm each, dried at 37° C. for 1 h, and then stained with hematoxylin and eosin (HE). The process is briefly as follows: paraffin sections were taken out of the 65° C. oven and immediately put in xylene to dewax and rehydrated with gradient alcohol, stained with hematoxylin staining solution for 10 minutes, and microscopically controlled alcohol differentiation with 1% hydrochloric acid was performed until the chromatin of the nucleus and the nucleus becomes clear; 1% ammonia water-ethanol solution is blue; 0.5% eosin Y-ethanol solution is stained for 3 min, and finally dehydrated routinely, mounted, and the tissue morphology changes are observed under a light microscope. […] The glomerular volume of rats in the DKD group of the Vehicle group increased, the mesangial area was diffusely widened, the mesangial cells were proliferated, the capillary loops were expanded, the mesangial matrix increased, and the glomerular capillary basement membrane was irregularly thickened. Renal pathological changes such as vacuole deformation, shedding of renal tubular epithelial cells and infiltration of a large number of inflammatory cells (FIG. 9A).

[5] = tested on: STZ-induced DKD rats; test: PAS staining, glomerular sclerosis index, STZ-induced DKD rats; format: in vivo, rat; conditions: all doses of TBN (10, 30, 60 mg/kg twice/day); Losartan 10 mg/kg once/day; 6 weeks; P<0.001 vs Vehicle
Protocol: as §1, §2
At the end of the experiment, kidney tissues were quickly separated, fixed with 4% paraformaldehyde and embedded in paraffin, serially sliced, 5 μm each, dried at 37° C. for 1 h, and then stained with PAS. The process is briefly as follows: paraffin sections are taken out of the 65° C. oven and immediately placed in xylene for deparaffinization and gradient alcohol rehydration, followed by periodic acid treatment for 5 min and Schiff treatment for 10 min, and then differentiation is performed with differentiation solution for 10 s. […]

[6] = tested on: db/db mice; test: Urinary albumin/creatinine ratio in db/db mice, TBN alone and in combination; format: in vivo, mouse; conditions: TBN 30 mg/kg, Losartan 10 mg/kg, TBN+Losartan (FIG. 17)
Protocol: Grouping and dosing are the same as in Example 9. At the end of the experiment, 24 h urine samples were collected, antiseptic treatment was performed to all urine specimens with toluene, 24 h urine was centrifuged to remove precipitation and placed in a 1.5 mLEP tube and then placed in a refrigerator at −20° C. for later use, urinary albumin content was measured with ELISA kits, urine creatinine levels were detected by use of an automatic biochemical analyzer, and the ratio of both was calculated. The results as shown in FIG. 19 indicate that the ratio of urinary microalbumin to creatinine in DB/DB group was higher than that in wt/wt group, and the db/db mice 24 h urinary albumin creatinine ratio decreased in TBN group, losartan group and TBN-losartan combination group. Referring to this method, metformin (150 mg/kg, qd), and HIF-PH inhibitor roxadustat (10 mg/kg, once 2 every days) were given via oral administration, the combination groups of TBN with respectively metformin and roxadustat also reduce 24 h urinary albumin creatinine ratio.

[7] = tested on: EPO mRNA; test: EPO mRNA by RT-PCR in CoCl2-induced HepG2 cell hypoxia model; conditions: hypoxia model caused by cobalt dichloride, concentration not given
[8] = tested on: STZ-induced DKD rats; test: Blood glucose and urine protein in STZ-induced DKD rats; format: in vivo, rat
Protocol: (§4) SD rats (200±10 g) were used as model animals, which were fasted for 12 h before injection. STZ was dissolved in citrate buffer at 1% concentration, and rats were fasted and intraperitoneally injected with 55 mg/kg STZ and placed in the cage, the rats being ensured with adequate water intake for 24 h. STZ injections need to be fast and complete within 10 minutes of injection. The normal control group was injected with an equal volume of pH 4.5 citric acid-sodium citrate buffer. The state of the animals (multiple drinking and polyuria) was observed. After 3 weeks of STZ injection, blood was collected from the tail vein, and fasting blood glucose ≥16.7 mmol/L was measured as the standard for diabetic nephropathy in rats.
(§5) DKD rats were randomly assigned to 6 groups and given with different drugs. After 6 weeks of administration, the experiment was terminated and the protective effect of the drug on DKD rats was observed.
During the experiment, the blood glucose of the rats was monitored after the completion of the modeling and after the completion of the administration, and urine protein was collected once at 24 hour.

[9] = tested on: STZ-induced DKD rats; test: Kidney index of STZ-induced DKD rats; format: in vivo, rat; conditions: after 6 weeks of administration
Protocol: as §4, §5
After 6 weeks of administration, the kidney tissue was uniformly separated by an autoclave surgical instrument, and washed with normal saline. After the filter paper was blotted, the fine balance was weighed, and then stored in a refrigerator at −80° C. for use. Kidney index (relative to kidney weight) is kidney weight (mg)/body weight (g)[…].

[10] = tested on: STZ-induced DKD rats; test: Body weight, water intake and food intake of STZ-induced DKD rats; format: in vivo, rat
Protocol: as §4, §5
The general condition and body weight changes after rat modeling were observed weekly. The general conditions include the activity, mental state, coat color, diet, water intake and urine volume of the rats. The amount of water and the amount of feed were recorded weekly.

[11] = tested on: STZ-induced DKD rats; test: Retinopathy of STZ-induced DKD rats; format: in vivo, rat; conditions: DKD rats after treatment, Table 1 (FIG. 5)
Protocol: as §4, §5
During the experiment, the retinopathy of rats was observed during daily administration, and the dates of retinopathy in different groups of rats were recorded.

[12] = tested on: STZ-induced DKD rats; test: Serum biochemical parameters of STZ-induced DKD rats; format: in vivo, rat; conditions: six weeks after administration, dose-dependent
Protocol: as §4, §5
Six weeks after the administration, the rats were anesthetized, and the blood was taken from the abdominal aorta, and, after standing for 1 hour, was centrifuged at 3000 rmp for 10 min and stored at −70° C. Serum levels of creatinine, urea nitrogen, cholesterol and triglycerides were measured using an automated biochemical analyzer.

Structure (SMILES) | interstitial fibrosis index [1] | thickness of the glomerular base film [2] | 24 h urine microalbumin production [3] | glomerular area [4] | renal tissue damage (HE) [4] | glomerular sclerosis index [5] | 24 h urinary albumin creatinine ratio [6] | expression of EPO mRNA [7] | urinary protein content in urine ([8]; 24 hour urine, DKD rats) | blood glucose ([8]; after 6 weeks of treatment) | kidney index [9] | body weight ([10]; STZ-induced diabetic nephropathy rats, FIG. 1a) | water intake ([10]; vs model group, FIG. 1b) | food intake ([10]; vs model group, FIG. 1c) | number of retinopathy [11] | time when retinopathy occurred [11] | serum cholesterol [12] | serum creatinine [12] | serum triglyceride [12] | serum urea nitrogen [12]
CCCCc1nc(Cl)c(CO)n1Cc1ccc(-c2ccccc2-c2nn[nH]n2)cc1 [Losartan, reference compound] | significantly reduced | significantly reduced | significantly reduced | did not significantly reduce | improved | significantly reduce | decreased | – | – | – | – | – | – | – | – | – | – | – | – | –
Cc1nc(/C=[N+](\[O-])C(C)(C)C)c(C)nc1/C=[N+](\[O-])C(C)(C)C [TN-2] | – | – | – | – | – | – | – | increase | significantly reduced | significantly decreased | significantly reduced | no effect | significantly lower | significantly lower | reduced | relatively delayed | significantly reduce | significantly reduce | significantly reduce | significantly reduce

Source: patent publication US12377095B2, “Use of ligustrazine nitrone derivatives in treatment and prevention of diabetic complication diseases” (QINGDAO HAILAN PHARMACEUTICALS CO., LTD., priority 2019, dated 2025)
